{"source": "patent US20040029208A1", "about": "“Assay method and kit for testing biological material for exposure to stress using biomarkers” (priority 2000, published 2004)", "type_in_all_cases": "in vivo", "key": {"[1]": {"system": "Plantágo lanceoláta", "experiment": "TLC plant biomarker pattern after herbicide spraying (greenhouse)", "protocol": "(§1) The experiments were performed in the green-house at the National Environmental Research Institute, Silkeborg, Denmark. All the seeds needed light to germinate, and were sown at the soil surface in individual 11 cm pots. The soil used during the experiments contained: (SM Growing Mould (Growing medium by special soil (sphagnum) added clay granulate), 0-30 mm; grade of turnover 55-75; added per m^3: 3 kg lime (white chalk), 1.5 kg dolit chalk, 40 kg clay granulate; Fertilizer added granulate: NO3-N: 55.0 g; NH4-N: 65.0 g; P: 106.6 g; K: 224.0 g; Mg: 22 g; Micro nutrients added in chelate form, Mo in uorganic form: B-Boron: 1 g; Cu-copper: 6 g; Mn-Manganese: 3 g; Zinc-Zn: 3 g: Fe-iron: 6 g; Mo- molybdenum: 1.4 g).\n(§2) During the experiments plants were watered from below, and the temperature in the green-house was maintained between 15° C. and 25° C. with variations due to external weather, and the photoperiod was 16th daylight. The green-house is divided into different units, which allowed for the separate maintenance of the control plants from the sprayed plants to avoid undesirable effects due to vapour drift.\n(§3) Glyphosate (Roundup Bio (360 g L^−1) was supplied by Monsanto Denmark A/S. Recommended field dose=1,44 kg a.i. ha^−1. In all the experiments, an automatic sprayer (designed in Denmark by Jens Kristensen 1994) was used where the herbicide application is achieved by moving boom equipment with two ordinary hydraulic flat fan nozzles (Hardi 4110-16). Two pots per spray event were placed in the middle of the spray chamber at 50 cm distance from the nozzle, delivering 200 L of water per-hectare with a desired herbicide concentration (working pressure 2 bars; speed of spray boom=4.7 km h^−1). The spraying was performed starting with the lowest concentration first, progressing towards the highest concentration. Between each herbicide, the sprayer was thoroughly rinsed several times with water. The control plants were sprayed with water.\n(§4) The fresh plant material was pressed using a hand press. The extract was immediately centrifuged. (3000 rpm) for 10 minutes. The supernatant was used for analysis. The extracts were kept cool or right above 0° C. during the test to avoid decomposition of biomarkers.\n(§5) Freeze-dried plant material was crushed and 250 mg was extracted with 5.00 ml 75% ethanol in an ultrasonic bath for 2 hours. The temperature was kept <0° C. (using ice) during the extraction to avoid decomposition of biomarkers. The extract was centrifuged (3000 rpm) for 10 minutes. The supematant was used for analysis and were kept cool during the test to avoid decomposition of biomarkers.\n(§6) The two extracts (freshtfresh ethanol) were applicated immediately on a TLC plate (10 μl on both TLC-Plate types (see below) using cool air-drying. The 75% ethanolic extract was applicated 10 μl on Silica-gel TLC-plates and 5 μl on Cellulose TLC-plates (see below). The fresh/fresh ethanolic extractsare recommended to perform if fresh plant material are to be analysed (field-test). The freeze-dried or frozen plant material extraction Is recommended if the analysis are performed in the laboratory.\n(§7) TLC-System 1: HPTLC-Alufolie Silica Gel 60 F254, Merck 1.05548 (10×10 cm); 10 μl plant extracts plants exposed to glyphosate and control plants; eluted in n-butanol acetic acid: water (4:1:5) (upper phase after 5 minutes shaking). Derivatisation: Stock solution 1:50% sulfuric acid in 96% ethanol; Stock solution 2: 2% vanillin in absolut alcohol; Derivatisation-solvent, Fresh produced before us, stock solution 1 and stock solution 2 (1:10); Aftercare: 120° C. in 2-3 min. The plate is valuated visually. The system detects higher alcoholics, phenolic compounds, steroids and etheric oils (Stahl 1969), terpenoids, phenyl propanolds, phenolic compounds (Wagner etea. 1984) […]"}, "[2]": {"system": "Lólium perénne", "experiment": "TLC plant biomarker pattern after herbicide spraying (greenhouse)", "conditions": "Roundup Bio; Lólium perénne", "protocol": "as §1, §2, §3, §4, §5, §6, §7"}, "[3]": {"system": "Leonorus carica", "experiment": "Visual effect rating (0-9) after Roundup Bio", "protocol": "(§8) Four, eight, sixteen and thirty two days after spraying, visual effects on plants were noted before harvest, using the rating chart described in Hamil. et al. (1977) and Boutin et al. (1993); a rating of zero indicates full growth and vigour, and a rating of nine indicates no growth/mortality.\n(§9) The study was performed in greenhouse between August and December 1998 for all species. Degree days (=(Present temperature in ° C.-5° C.)×amount of days) were used as time scale. The plants were 226-378 degree days (30 days) old before exposure. The plants were exposed to 0, 1. 10 and 100% of the recommended field dose of Roundup Bio. Before the harvest, the plants were evaluated for visual effects using the rating chart described in Table 1 (Hamit et al., 1977). A rating of zero indicates full growth and vigour (compared with control plants) and a rating of nine, no growth/mortality. The plants were all harvested 180 degree days (14 days) after exposure. The plants were lyophilizied and k pt dry and in dark before phytochemical analysis.\n(§10) Table 2: Sensitivity of plants exposed to glyphosate (Roundup Bio), based on presence of phytochemical changes in all the TLC-Systems at lowest dose of concentration (LC) of the herbicide in percent of field dose. The corresponding visual effect (VE) Is presented (see table 1)."}, "[4]": {"system": "Rudbeckia hirta", "experiment": "Visual effect rating (0-9) after Roundup Bio", "protocol": "as §8, §9, §10"}, "[5]": {"system": "Mentha spicata", "experiment": "Visual effect rating (0-9) after Roundup Bio", "protocol": "as §8, §9, §10"}, "[6]": {"system": "Sinapis avensis", "experiment": "Visual effect rating (0-9) after Roundup Bio", "protocol": "as §8, §9, §10"}, "[7]": {"system": "Bellis perennis", "experiment": "Visual effect rating (0-9) after Roundup Bio", "protocol": "as §8, §9, §10"}, "[8]": {"system": "Nepeta cataria", "experiment": "Visual effect rating (0-9) after Roundup Bio", "protocol": "as §8, §9, §10"}, "[9]": {"system": "Papaver rhoeas", "experiment": "Visual effect rating (0-9) after Roundup Bio", "protocol": "as §8, §9, §10"}, "[10]": {"system": "Plantágo lanceoláta", "experiment": "Visual effect rating (0-9) after herbicide spraying", "text": "as §8\n(§11) The min. visual effect (VE) of the presence of plant biomarkers is rated as described by Hamil et al., (1977) and Boutin et al. (1993)."}, "[11]": {"system": "Centauréa cýanus", "experiment": "Visual effect rating (0-9) after herbicide spraying", "text": "as §8, §11"}, "[12]": {"system": "Lólium perénne", "experiment": "Visual effect rating (0-9) after herbicide spraying", "conditions": "Roundup Bio, Lólium perénne", "text": "as §8, §11"}, "[13]": {"system": "Anagallis arvensis", "experiment": "Visual effect rating (0-9) after herbicide spraying", "conditions": "Roundup Bio, Anagallis arvensis", "text": "as §8, §11"}}, "data": [{"compound": "O=C(O)CNCP(=O)(O)O", "note": "[Glyphosate]", "values": [{"measurement": "LC: lowest dose of concentration of the herbicide with phytochemical changes in all the TLC-Systems", "setting": "[1]; Roundup Bio, Plantágo lanceoláta", "result": "1% of field dose"}, {"measurement": "Min. of label dose of herbicide with effect", "setting": "[1]; TLC 1 (non-specific compounds)", "result": 1, "unit": "%"}, {"measurement": "Min. of label dose of herbicide with effect", "setting": "[1]; TLC 2 (phenolic compounds)", "result": 1, "unit": "%"}, {"measurement": "Min. of label dose of herbicide with effect", "setting": "[1]; TLC 6 (lipids and terpens)", "result": 1, "unit": "%"}, {"measurement": "Min. of label dose of herbicide with effect", "setting": "[1]; TLC 7 (non-specific compounds)", "result": 1, "unit": "%"}, {"measurement": "Min. of label dose of herbicide with effect", "setting": "[1]; TLC 4d (amino acids)", "result": 1, "unit": "%"}, {"measurement": "LC: lowest dose of concentration of the herbicide with phytochemical changes in all the TLC-Systems", "setting": "[2]", "result": "1% of field dose"}, {"measurement": "VE: corresponding visual effect", "setting": "[3]", "result": 5}, {"measurement": "VE: corresponding visual effect", "setting": "[4]", "result": 1}, {"measurement": "VE: corresponding visual effect", "setting": "[5]", "result": 6}, {"measurement": "VE: corresponding visual effect", "setting": "[6]", "result": 7}, {"measurement": "VE: corresponding visual effect", "setting": "[7]", "result": 7}, {"measurement": "VE: corresponding visual effect", "setting": "[8]", "result": 7}, {"measurement": "VE: corresponding visual effect", "setting": "[9]", "result": 4}, {"measurement": "Min. visual effect", "setting": "[10]; at presence of TLC 1 biomarker", "result": 0}, {"measurement": "Min. visual effect", "setting": "[10]; at presence of TLC 6 biomarker", "result": 4}, {"measurement": "Min. visual effect", "setting": "[11]; at presence of TLC 1 biomarker", "result": 3}, {"measurement": "Min. visual effect", "setting": "[11]; at presence of TLC 6 biomarker", "result": 3}, {"measurement": "Min. visual effect", "setting": "[11]; at presence of TLC 7 biomarker", "result": 3}, {"measurement": "VE: corresponding visual effect", "setting": "[12]", "result": 0}, {"measurement": "VE: corresponding visual effect", "setting": "[13]", "result": 0}]}]}
